Experimental data reported in patent US10759826B2, “15β-substituted estrone derivatives as selective inhibitors of 17β-hydroxysteroid-dehydrogenases, method of preparation and use thereof” (USTAV ORGANICKE CHEMIE A BIOCHEMIE AV CR, V.V.I., priority 2016, dated 2020).
“And” between values parts separate entries of the source, which are not always exact repeats. Identical values can stand only once. “Also recorded” adds a separate entry of the source.

Legend:
A549 = experiment: MTT cytotoxicity assay, A549; type: cell-based; settings: Homo sapiens
Description: (§1) Compounds 5, 6, 7, 9, 14 and 15 were used for evaluation of antitumor activity. MTT cytotoxicity assay was used in vitro on cell lines derived from normal tissues and from tumors. Specifically, these were the K562 line (human myeloid leukemia), K562-Tax (human myeloid leukemia resistant to taxol and overexpressing PgP protein for multidrug resistance), CEM (T-lymphoblastic leukemia), CEM-DNR bulk (T-lymphoblastic leukemia resistant doxorubicin, lacking the expression of the target gene for inhibitors of topoisomerase II alpha), A549 line (human lung adenocarcinoma), HCT116p53 wt (human colon cancer), HCT116p53−/− (human colon cancer, mutant p53), U2OS line of human osteosarcoma and two fibroblast lines MRC5 and BJ as examples of non-tumor cells. Expression characteristics, profiles of susceptibility to classical antitumor drugs and methodology of the MTT cytotoxicity assay were repeatedly published (e.g. Noskova et al. Neoplasma 2002, 49, 418; S̆arek et. al. J. Med. Chem. 2003, 46, 25, 5402).

CEM = experiment: MTT cytotoxicity assay, CEM; type: cell-based; settings: Homo sapiens, CCRF-CEM
Description: as §1

human 17βHSD1 [1] = target: T1, human 17βHSD1 (Homo sapiens, UniProt P14061); experiment: 17βHSD inhibition in CHO cells transfected with human 17βHSD1, E1 in supernatant; type: cell-based; set-up: expressed in transfected cells; settings: 10 μmol·l^−1
T1 sequence (P14061 1-328): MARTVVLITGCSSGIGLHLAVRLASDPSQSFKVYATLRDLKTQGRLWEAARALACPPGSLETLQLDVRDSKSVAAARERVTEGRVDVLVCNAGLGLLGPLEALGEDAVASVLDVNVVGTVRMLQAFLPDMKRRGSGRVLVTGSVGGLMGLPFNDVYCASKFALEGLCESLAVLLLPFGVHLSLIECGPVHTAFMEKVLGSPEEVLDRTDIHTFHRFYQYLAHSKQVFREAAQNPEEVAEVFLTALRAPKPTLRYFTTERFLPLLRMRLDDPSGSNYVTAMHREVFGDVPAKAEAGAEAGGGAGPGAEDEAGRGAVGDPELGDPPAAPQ
Protocol: (§2) For this experiment, non-cytotoxic concentrations of estrone derivative (10 μmol·l^−1) were used. E1 levels were determined by an immuno-enzymatic assay.

embryo = experiment: Toxicity in the CAM model, dead and surviving embryos; type: in vivo, White Leghorn eggs; settings: 50 μmol·l^−1, after 6 days of treatment, FIG. 2C
Protocol: The toxicity after 6 days of the treatment was characterized by the number of dead embryos, eventual visible macroscopic abnormalities were evaluated as well.

MRCS = experiment: MTT cytotoxicity assay, MRC5 fibroblasts; type: cell-based; settings: Homo sapiens, Fibroblast, non-tumor fibroblasts
Description: as §1

human 17βHSD1 [2] = target: T1, human 17βHSD1; experiment: 17βHSD inhibition in MCF-7 cells transfected with human 17βHSD1, E1 in supernatant; type: cell-based; set-up: expressed in transfected cells; host or cells: MCF-7; settings: 10 μmol·l^−1
Protocol: as §2

HCT116p53-/- = experiment: MTT cytotoxicity assay, HCT116p53-/-; type: cell-based; settings: Homo sapiens
Description: as §1

U2OS = experiment: MTT cytotoxicity assay, U2OS; type: cell-based; settings: Homo sapiens
Description: as §1

K562 = experiment: MTT cytotoxicity assay, K562; type: cell-based; settings: Homo sapiens
Description: as §1

HCT116p53 wt = experiment: MTT cytotoxicity assay, HCT116p53 wt; type: cell-based; settings: Homo sapiens
Description: as §1

T47D cells = experiment: E1 induced proliferation of T47D cells, 7 days, cell count; type: cell-based, human; settings: FIG. 1
Description: Two days prior to testing of compounds, growth medium was changed to medium without phenol red, supplemented with 2 mmol^·l^−1 Glutamax and 4% FBS depleted of lipophilic components (including the endogenous estrogenic substances) (Hyclone, GE Healthcare Life Sciences, USA). Two days after the medium replacement, the cells were harvested, counted and resuspended in a medium. Cells were dispensed with liquid dispenser Multidrop (Thermo Fisher Scientific, Waltham, USA), to the cell culture treated, 12-well plates (Corning Inc., NY, USA) at 100 000 cells/well in 1 mL of total media volume. Compounds diluted in the medium were added 24 h later and cells were incubated for 7 more days with or without 1 μmol^·l^−1 E1. Growth medium was changed during the experiment on day 3, and freshly diluted compounds were added to cells again. After 7 days of cell cultivation with compounds, cells were harvested and counted. Cell number was normalized and 100% was attributed to cells cultivated in the presence of 1 μmol^·l^−1 E1 and 0% to the cells cultivated without any added compound.

17βHSD = experiment: Inhibition of 17βHSD in vivo, E2 in plasma of mice; set-up: species or system mice (NMRI); settings: 20 mg/kg daily, orally; for E2 in plasma, individual mice: 20 mg/kg
K562-Tax = experiment: MTT cytotoxicity assay, K562-Tax; type: cell-based; settings: Homo sapiens
Description: as §1

BJ = experiment: MTT cytotoxicity assay, BJ fibroblasts; type: cell-based; settings: Homo sapiens, non-tumor fibroblasts
Description: as §1

CEM-DNR-bulk = experiment: MTT cytotoxicity assay, CEM-DNR-bulk; type: cell-based
Description: as §1

## COc1ccc(CC[C@@H]2CC(=O)[C@@]3(C)CC[C@@H]4c5ccc(O)cc5CC[C@H]4[C@H]23)cc1 [Compound 9, 3-Hydroxy-15β-(4-methoxyphenethyl)-estra-1,3,5 (10)-trien-17-one]
A549
  IC50: 41 µM
CEM
  IC50: 21.4 µM
Human 17βHSD1 [1]; 8 hr.
  E1 in supernatant, CHO: 1171 pg/mL
Human 17βHSD1 [1]; 24 hr.
  E1 in supernatant, CHO: 739 pg/mL
embryo
  toxicity, dead/alive eggs: No specific toxicity
MRCS
  IC50: > 50 µM
Human 17βHSD1 [2]; 8 hr.
  E1 in supernatant, MCF-7: 1300 pg/mL
Human 17βHSD1 [2]; 24 hr.
  E1 in supernatant, MCF-7: 1182 pg/mL
HCT116p53-/-
  IC50: 35.7 µM
U2OS
  IC50: 45.3 µM
K562
  IC50: 27.7 µM
HCT116p53 wt
  IC50: 29.4 µM
T47D cells; 1 μmol·l^−1, without E1, 7 days
  effect on T47D proliferation, compound alone: weakly pro-proliferative
T47D cells; incubated together with 0.1 nmol·l^−1 E1, 7 days
  effect on E1-induced proliferation of T47D cells: reverses the pro-proliferative activity of E1; also recorded: blocks E1-induced proliferation
17βHSD; 7 days
  E2 in plasma, mean value ± σ: 5693 ± 1034 pg/mL
  E2 in plasma, individual mice: 4927 pg/mL and 4357 pg/mL and 6020 pg/mL and 7379 pg/mL and 5857 pg/mL and 5617 pg/mL
17βHSD; 14 days
  E2 in plasma, mean value ± σ: 3874 ± 1253 pg/mL
  E2 in plasma, individual mice: 6020 pg/mL and 2668 pg/mL and 2657 pg/mL and 3566 pg/mL and 4312 pg/mL and 4025 pg/mL
K562-Tax
  IC50: 9.12 µM
BJ
  IC50: > 50 µM
CEM-DNR-bulk
  IC50: 22.1 µM

## CCOc1ccc(CC[C@@H]2CC(=O)[C@@]3(C)CC[C@@H]4c5ccc(O)cc5CC[C@H]4[C@H]23)cc1 [Compound 12, 15β-(4-Ethoxyphenethyl)-3-hydroxy-estra-1,3,5(10)-trien-17-one]
other
  melting point: 173 °C
